From PubChem BioAssay (NCI)
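Cultured in 96-well plates, cells were exposed to test compound for 48 hours across five concentrations. GI50 is the concentration that inhibits growth by half. Definition used: TGI = concentration required for complete inhibition of growth.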

Key:
Experiment in all cases: NCI anticancer screen, dose series, 48 h
HCT-116 colon = system: HCT-116 colon
NCI/ADR-RES ovarian = system: NCI/ADR-RES ovarian
TK-10 renal = system: TK-10 renal
ACHN renal = system: ACHN renal
OVCAR-8 ovarian = system: OVCAR-8 ovarian
KM12 colon = system: KM12 colon
A549 NSCLC = system: A549 NSCLC
RPMI-8226 leukemia = system: RPMI-8226 leukemia
IGROV1 ovarian = system: IGROV1 ovarian
SN12C renal = system: SN12C renal
CCRF-CEM leukemia = system: CCRF-CEM leukemia
OVCAR-4 ovarian = system: OVCAR-4 ovarian
NCI-H522 lung = system: NCI-H522 lung
BT-549 breast = system: BT-549 breast
HOP-62 NSCLC = system: HOP-62 NSCLC
UACC-257 melanoma = system: UACC-257 melanoma
UO-31 renal = system: UO-31 renal
SW-620 colon = system: SW-620 colon
SK-OV-3 ovarian = system: SK-OV-3 ovarian
SF-268 CNS = system: SF-268 CNS
MCF7 breast = system: MCF7 breast
HL-60(TB) leukemia = system: HL-60(TB) leukemia
MDA-MB-231 breast = system: MDA-MB-231 breast
OVCAR-5 ovarian = system: OVCAR-5 ovarian
OVCAR-3 ovarian = system: OVCAR-3 ovarian
HT29 colon = system: HT29 colon
U251 CNS = system: U251 CNS
RXF 393 renal = system: RXF 393 renal
SNB-19 CNS = system: SNB-19 CNS

Cc1ccc(C2=Nc3c(N)nc(N)nc3NC(c3cccc(Nc4ccnc5cc(C(F)(F)F)ccc45)c3)C2)cc1 (configuration not stated)
TGI (HCT-116 colon): 2.96 µM | GI50 (NCI/ADR-RES ovarian): 2.29 µM | TGI (NCI/ADR-RES ovarian): 6.15 µM | GI50 (TK-10 renal): 4.11 µM | TGI (TK-10 renal): 16.5 µM | GI50 (ACHN renal): 2.8 µM | TGI (ACHN renal): 11.1 µM | GI50 (OVCAR-8 ovarian): 2.31 µM | TGI (OVCAR-8 ovarian): 5.6 µM | GI50 (KM12 colon): 1.71 µM | TGI (KM12 colon): 3.63 µM | GI50 (A549 NSCLC): 2.88 µM | TGI (A549 NSCLC): 10.7 µM | GI50 (RPMI-8226 leukemia): 1.9 µM | TGI (RPMI-8226 leukemia): 4.7 µM | GI50 (IGROV1 ovarian): 1.89 µM | TGI (IGROV1 ovarian): 4.77 µM | GI50 (SN12C renal): 2.03 µM | TGI (SN12C renal): 4.71 µM | GI50 (CCRF-CEM leukemia): 2.21 µM | TGI (CCRF-CEM leukemia): 5.73 µM | GI50 (OVCAR-4 ovarian): 3.02 µM | TGI (OVCAR-4 ovarian): 14 µM | GI50 (NCI-H522 lung): 1.56 µM | TGI (NCI-H522 lung): 3.49 µM | GI50 (BT-549 breast): 1.66 µM | TGI (BT-549 breast): 3.36 µM | GI50 (HOP-62 NSCLC): 2.66 µM | TGI (HOP-62 NSCLC): 9.4 µM | GI50 (UACC-257 melanoma): 2.12 µM | TGI (UACC-257 melanoma): 4.42 µM | GI50 (UO-31 renal): 1.51 µM | TGI (UO-31 renal): 3.03 µM | GI50 (SW-620 colon): 1.7 µM | TGI (SW-620 colon): 3.52 µM | GI50 (SK-OV-3 ovarian): 3.56 µM | TGI (SK-OV-3 ovarian): 13.4 µM | GI50 (SF-268 CNS): 1.93 µM | TGI (SF-268 CNS): 4.19 µM | GI50 (MCF7 breast): 1.84 µM | TGI (MCF7 breast): 4.99 µM | GI50 (HL-60(TB) leukemia): 2.38 µM | TGI (HL-60(TB) leukemia): 5.54 µM | GI50 (MDA-MB-231 breast): 1.67 µM | TGI (MDA-MB-231 breast): 3.26 µM | GI50 (OVCAR-5 ovarian): 3.69 µM | TGI (OVCAR-5 ovarian): 15.7 µM | GI50 (OVCAR-3 ovarian): 1.78 µM | TGI (OVCAR-3 ovarian): 3.53 µM | GI50 (HT29 colon): 2.46 µM | TGI (HT29 colon): 5.89 µM | GI50 (U251 CNS): 1.82 µM | TGI (U251 CNS): 3.62 µM | GI50 (RXF 393 renal): 1.41 µM | TGI (RXF 393 renal): 2.87 µM | GI50 (SNB-19 CNS): 2.27 µM | TGI (SNB-19 CNS): 7.08 µM
